Assay [1] concerns the target T1, PPAR-α (Homo sapiens, UniProt Q07869).
T1 construct: expressed in transfected cells; host or cells: CV-1 (African green monkey kidney)
T1 sequence (Q07869 167-468): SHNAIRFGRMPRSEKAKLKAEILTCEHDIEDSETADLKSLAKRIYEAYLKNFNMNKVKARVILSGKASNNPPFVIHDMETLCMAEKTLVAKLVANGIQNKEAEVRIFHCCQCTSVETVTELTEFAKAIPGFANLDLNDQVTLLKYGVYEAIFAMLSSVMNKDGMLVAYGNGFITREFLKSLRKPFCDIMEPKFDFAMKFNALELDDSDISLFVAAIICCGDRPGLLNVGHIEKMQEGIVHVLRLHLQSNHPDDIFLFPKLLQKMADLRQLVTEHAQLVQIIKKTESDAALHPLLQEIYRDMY
Kind of assay: Measurement of PPAR-α activity (GAL4 luciferase reporter assay in CV-1 cells). It counts as cell-based. To be noted: 100(A/B): A = maximum PPAR-α activity of test compound at 3, 10, 30 and 100 μM, B = activity of the compound of WO/2011/058154 at 100 μM, 18 to 20 hours, read-out: Relative fold induction (%) of PPAR α. The method, boiled down:
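CV-1 cells were co-transfected with a UAS×5-TK-Luc reporter and a hGR-GAL4-hPPARα (LBD 167-468aa) expression plasmid, then dosed with compound for 18 to 20 h at 37 °C, with Bright-Glo luciferase read-out. Relative fold induction (%) is the maximum activity at 3, 10, 30 or 100 μM divided by the activity of a WO/2011/058154 reference compound at 100 μM.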

In assay [2] the test system is Rat skeletal muscle-derived L6 myoblasts (differentiated into myotube cells). The assay can be described thus: Evaluation of glycogen accumulation in L6. It counts as cell-based. Particulars: [14C] glycogen from D-[U-C14] glucose, 3 hours incubation, 100% = compound of Example 1 of WO/2011/058154 at 30 μM. The protocol: The glycogen accumulation activity was evaluated in skeletal muscle cells according to the published article (ANALYTICAL BIOCHEMISTRY, Vol. 261: 159-163, 1998) by the following method. Rat skeletal muscle-derived L6 myoblasts (ATCC) were seeded in a 96-well collagen-coated plate (IWAKI, 4860-010) by using a growth medium (10% FBS-containing α-MEM medium (NACALAI TESQUE, INC., 21444-05)) under a condition of 4×10^4 cells/100 μL/well. After culturing under conditions of 37° C. and 5% CO2 overnight, the medium was replaced with a differentiation medium (2% FBS-containing α-MEM medium), followed by culturing for 3 days to differentiate the myoblasts into myotube cells. On the day of evaluation, the medium was replaced with a glucose-deprived medium (0.1% BSA-containing DMEM medium (Gibco, 11966)). After culturing for 4 hours, the medium was replaced with assay media (0.1% BSA-containing DMEM medium (NACALAI TESQUE, INC., 08456-65)) containing 0.6% DMSO and one of the test compounds at a concentration which was twice the final evaluation concentration at 15 μL/well. Further, an assay medium containing D-[U—C14] glucose (PerkinElmer Inc., NEC042V) at […] was added at 15 μL/well to adjust the final volume to 30 μL/well. Then, the cells were incubated under conditions of 37° C. and 5% CO2 for 3 hours. After the incubation, each medium was removed by suction with an aspirator, and the wells were rinsed with PBS at 200 μL/well twice. Then, 1 N NaOH was added at 50 μL/well, and the cells were lysed by incubation at 60° C. for 10 minutes. After the temperature of the lysed cells was returned to room temperature, each whole cell lysate and […] glycogen (Sigma-Aldrich, G8876) at 5 μL/well were added to a Multiscreen HTS (Millipore, MSFCN6B) to which 100% ethanol was added in advance at 100 μL/well, followed by incubation at 4° C. for 20 minutes. After the incubation, aspiration was conducted by using Multiscreen HTS Vacuum Manifold (Millipore), followed by rinse with 66% ethanol at 200 μL/well twice. After ethanol remaining on the filter was completely removed by drying, MicroScint40 (PerkinElmer Inc.) was added at 50 μL/well, the amount of [14C] glycogen was measured with TopCountNXT (PerkinElmer Inc.). The activity of each test compound was calculated by the following method. Specifically, the relative activity (%) was calculated as 100×(B−A)/(C−A), where A represents a value (cpm) measured for a well not containing the compound but containing only DMSO, B represents a value measured for a well containing the compound and DMSO, and C represents a value measured for a well containing the compound of Example 1 of WO/2011/058154 at a final concentration of 30 μM. EC50 representing the concentration of the compound at which an increase in activity by 50% was caused was calculated using XLfit (idbs).

Structures can show the parent of a compound that is named as a salt.

As to `CSc1cc(F)c(F)cc1-c1ccc(OCc2cccc(C(=O)N(CCN3CCCC3)CC(=O)O)c2)cc1` [Example 40, 2-[[3-[[4-(4,5-Difluoro-2-methylsulfanyl-phenyl)phenoxy]methyl]benzoyl]-(2-pyrrolidin-1-ylethyl)amino]acetic Acid Trifluoroacetate], in assay [1], the Emax turned out to be 9.4%. Besides, in assay [2], the EC50 was determined as 5400 nM. The like results for `COC[C@H]1CC[C@@H](C(=O)O)N1C(=O)c1cccc(COc2ccc(-c3cc(F)c(F)cc3SC)cc2)c1` [Example 65, (2S,5R)-1-[3-[[4-(4,5-Difluoro-2-methylsulfanyl-phenyl)phenoxy]methyl]benzoyl]-5-(methoxymethyl)pyrrolidine-2-carboxylic Acid] were, in that order, 7% and 1800 nM. The like results for `COCCN(CC(=O)O)C(=O)c1cccc(COc2ccc(-c3cc(F)c(F)cc3SC)cc2)c1` [Example 6, 2-[[3-[[4-(4,5-Difluoro-2-methylsulfanyl-phenyl)phenoxy]methyl]benzoyl]-(2-methoxyethyl)amino]acetic Acid] were, in that order, 86% and 570 nM. For the compound `CNCCN(CC(=O)O)C(=O)c1cccc(COc2ccc(-c3cc(F)c(F)cc3SC)cc2)c1` [Example 28, 2-[[3-[[4-(4,5-Difluoro-2-methylsulfanyl-phenyl)phenoxy]methyl]benzoyl]-[2-(methylamino)ethyl]amino]acetic Acid Trifluoroacetate], the Emax in assay [1] is 10%. This compound displayed an EC50 in assay [2] of under 300 nM. The like results for `CSc1cc(F)c(F)cc1-c1ccc(OCc2cccc(C(=O)N(CC(=O)O)CC3CCNCC3)c2)cc1` [Example 35, 2-[[3-[[4-(4,5-Difluoro-2-methylsulfanyl-phenyl)phenoxy]methyl]benzoyl]-(4-piperidylmethyl)amino]acetic Acid Trifluoroacetate] were, in that order, 8.5% and 630 nM. The like results for `CSc1cc(F)c(F)cc1-c1ccc(OCc2cccc(C(=O)N(CC(=O)O)Cc3ccccn3)c2)cc1` [Example 20, 2-[[3-[[4-(4,5-Difluoro-2-methylsulfanyl-phenyl)phenoxy]methyl]benzoyl]-(2-pyridylmethyl)amino]acetic Acid Trifluoroacetate] were, in that order, 13% and 710 nM. The like results for `CSc1cc(F)c(F)cc1-c1ccc(OCc2cccc(C(=O)N(CC(=O)O)Cc3ncco3)c2)cc1` [Example 42, 2-[[3-[[4-(4,5-Difluoro-2-methylsulfanyl-phenyl)phenoxy]methyl]benzoyl]-(oxazol-2-ylmethyl)amino]acetic Acid] were, in that order, 13% and 880 nM. As for `CSc1cc(F)c(F)cc1-c1ccc(OCc2cccc(C(=O)N(CC(=O)O)Cc3cocn3)c2)cc1` [Example 52, 2-[[3-[[4-(4,5-Difluoro-2-methylsulfanyl-phenyl)phenoxy]methyl]benzoyl]-(oxazol-4-ylmethyl)amino]acetic Acid], in assay [1], the Emax worked out at 8.1%.

On to `CSc1cc(F)c(F)cc1-c1ccc(OCc2cccc(C(=O)N(CCc3noc(C)n3)CC(=O)O)c2)cc1` [Example 60, 2-[[3-[[4-(4,5-Difluoro-2-methylsulfanyl-phenyl)phenoxy]methyl]benzoyl]-[2-(5-methyl-1,2,4-oxadiazol-3-yl)ethyl]amino]acetic Acid], for which the Emax in assay [1] stood at 14%. On the same count and under the same terms, in the case of `CSc1cc(F)c(F)cc1-c1ccc(OCc2cccc(C(=O)N(CCNS(C)(=O)=O)CC(=O)O)c2)cc1` [Example 17, 2-[[3-[[4-(4,5-Difluoro-2-methylsulfanyl-phenyl)phenoxy]methyl]benzoyl]-[2-(methanesulfonamido)ethyl]amino]acetic Acid] it was 13%.

For `CSc1cc(F)c(F)cc1-c1ccc(OCc2cccc(C(=O)N(CC(=O)O)Cc3nnc(C)o3)c2)cc1` [Example 73, 2-[[3-[[4-(4,5-Difluoro-2-methylsulfanyl-phenyl)phenoxy]methyl]benzoyl]-[(5-methyl-1,3,4-oxadiazol-2-yl)methyl]amino]acetic Acid], the Emax in assay [1] worked out at 16%.

The record behind these values is patent publication US20160046592A1, “PHARMACEUTICAL COMPOSITION FOR THE TREATMENT OF DIABETES” (Ajinomoto Co., Inc., priority 2013, published 2016).
